Test results reported in ChEMBL document CHEMBL2407063, “Synthesis and in vitro cellular uptake of 11C-labeled 5-aminolevulinic acid derivative to estimate the induced cellular accumulation of protoporphyrin IX” (Bioorg Med Chem Lett, 2013).

Legend:
ASPC1 [1] = assay: Cellular uptake in human AsPC1 cells at 15 MBq after 10 mins by gamma counting in presence of aminolevulinic acid; assay type: ADME, cell-based; conditions: aspc1, 10 min
[2] = target: T1, Delta-aminolevulinic acid dehydratase (Homo sapiens, UniProt P13716); assay: Inhibition of ALAD (unknown origin)
T1 sequence (P13716 whole entry): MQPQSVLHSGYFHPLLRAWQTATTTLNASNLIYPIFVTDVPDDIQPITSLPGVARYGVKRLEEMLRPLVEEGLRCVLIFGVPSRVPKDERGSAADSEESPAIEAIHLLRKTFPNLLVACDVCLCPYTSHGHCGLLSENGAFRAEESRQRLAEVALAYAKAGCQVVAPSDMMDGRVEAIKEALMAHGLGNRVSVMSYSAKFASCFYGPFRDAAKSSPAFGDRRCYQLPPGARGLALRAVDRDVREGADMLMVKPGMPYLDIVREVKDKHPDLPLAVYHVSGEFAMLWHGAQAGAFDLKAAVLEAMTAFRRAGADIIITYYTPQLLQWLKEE

ASPC1 [3] = assay: Cellular uptake in human AsPC1 cells at 15 MBq after 10 mins by gamma counting in presence of PEPT1/2 substrate glycylsarcosine; assay type: ADME, cell-based; conditions: aspc1, 10 min
[4] = Protein binding in mouse serum by ultrafiltration method; assay type: ADME, cell-free; conditions: read-out: PB (converted)
[5] = […] in mouse serum after 60 mins by HPLC analysis; assay type: ADME, cell-free
ASPC1 [6] = assay: Cellular uptake in human AsPC1 cells at 15 MBq after 10 mins by gamma counting in presence of beta-transporter substrate GABA; assay type: ADME, cell-based; conditions: aspc1, 10 min
ASPC1 [7] = assay: Cellular uptake in human AsPC1 cells at 15 MBq by gamma counting; assay type: ADME, cell-based; conditions: TDE = time-dependent effect

Drug uptake (ASPC1 [1]): Not Active | Ki [2]: 0.2 µM | Drug uptake (ASPC1 [3]): Not Active | fraction unbound [4]: 0.973 | fraction unbound at 1 h [5]: 0.974 | Drug uptake (ASPC1 [6]): Not Active | Drug uptake (ASPC1 [7]): tde
Structure (SMILES): [11CH3]C(N)C(=O)CCC(=O)O (racemic)
